Experimental data from article PMC8343220, “The selectivity of α‐adrenoceptor agonists for the human α1A, α1B, and α1D‐adrenoceptors” (Pharmacology Research & Perspectives, 2021).
Read-outs that look alike come from different tables or passages of the source.

Key:
[1] = target: T1, human α1D‐adrenoceptor (full length) (Homo sapiens, UniProt P25100); assay: ERK1/2‐phosphorylation (Surefire Alphascreen), CHO‐α1D cells; type: cell-based; details: for EC50: read-out: ERK1/2‐phosphorylation Log EC50 (converted)
T1 construct: human α1D‐adrenoceptor (full length) were used; expressed in transfected cells; host or cells: CHO-K1
T1 sequence (P25100 1-572): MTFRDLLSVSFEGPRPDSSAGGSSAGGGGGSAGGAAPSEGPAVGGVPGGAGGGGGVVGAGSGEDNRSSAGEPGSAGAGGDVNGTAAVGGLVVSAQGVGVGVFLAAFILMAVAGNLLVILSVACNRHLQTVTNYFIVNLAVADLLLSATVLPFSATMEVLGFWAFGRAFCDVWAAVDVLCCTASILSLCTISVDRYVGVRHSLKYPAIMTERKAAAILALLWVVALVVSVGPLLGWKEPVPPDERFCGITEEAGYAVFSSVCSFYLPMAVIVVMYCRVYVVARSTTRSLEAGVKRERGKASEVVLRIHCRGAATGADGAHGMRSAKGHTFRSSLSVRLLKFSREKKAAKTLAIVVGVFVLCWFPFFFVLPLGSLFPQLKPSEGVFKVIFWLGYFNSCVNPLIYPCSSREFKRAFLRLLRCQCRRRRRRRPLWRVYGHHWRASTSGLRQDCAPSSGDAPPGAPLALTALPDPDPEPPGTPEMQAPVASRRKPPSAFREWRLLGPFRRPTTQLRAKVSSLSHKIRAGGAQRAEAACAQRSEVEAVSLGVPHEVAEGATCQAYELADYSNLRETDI

human α1B‐adrenoceptor [2] = target: T2, human α1B‐adrenoceptor (Homo sapiens, UniProt P35368); assay: Intracellular free calcium mobilization, CHO‐α1B cells; type: cell-based; details: for EC50: read-out: Intracellular calcium release Log EC50 (converted)
T2 construct: expressed in transfected cells; host or cells: CHO-K1
T2 sequence (P35368 1-520): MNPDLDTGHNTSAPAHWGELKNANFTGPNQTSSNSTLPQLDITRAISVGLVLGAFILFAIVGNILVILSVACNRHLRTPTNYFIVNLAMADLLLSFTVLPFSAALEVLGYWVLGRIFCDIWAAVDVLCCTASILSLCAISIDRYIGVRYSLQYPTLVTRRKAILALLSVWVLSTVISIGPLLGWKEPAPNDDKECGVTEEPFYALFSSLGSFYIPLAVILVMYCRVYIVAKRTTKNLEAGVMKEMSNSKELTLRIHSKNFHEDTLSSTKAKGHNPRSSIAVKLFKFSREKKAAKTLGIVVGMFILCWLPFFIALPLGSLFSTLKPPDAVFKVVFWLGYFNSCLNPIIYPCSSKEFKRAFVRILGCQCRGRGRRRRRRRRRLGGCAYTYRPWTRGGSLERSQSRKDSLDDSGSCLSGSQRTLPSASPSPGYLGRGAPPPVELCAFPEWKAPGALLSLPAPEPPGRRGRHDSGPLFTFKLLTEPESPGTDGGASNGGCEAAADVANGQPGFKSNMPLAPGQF

[3] = system: parental CHO cell line without any transfected receptors; assay: ERK1/2‐phosphorylation, parent CHO cells without transfected receptors; type: cell-based, Chinese hamster; details: Cricetulus griseus, CHO; read-out: ERK1/2-phosphorylation % PDBu at 100μM
human α1A‐adrenoceptor [4] = target: T3, human α1A‐adrenoceptor (Homo sapiens, UniProt P35348); assay: ^3H‐cAMP accumulation, CHO‐α1A cells; type: cell-based; details: CHO‐α1A cells
T3 construct: expressed in transfected cells; host or cells: CHO-K1
T3 sequence (P35348 1-466): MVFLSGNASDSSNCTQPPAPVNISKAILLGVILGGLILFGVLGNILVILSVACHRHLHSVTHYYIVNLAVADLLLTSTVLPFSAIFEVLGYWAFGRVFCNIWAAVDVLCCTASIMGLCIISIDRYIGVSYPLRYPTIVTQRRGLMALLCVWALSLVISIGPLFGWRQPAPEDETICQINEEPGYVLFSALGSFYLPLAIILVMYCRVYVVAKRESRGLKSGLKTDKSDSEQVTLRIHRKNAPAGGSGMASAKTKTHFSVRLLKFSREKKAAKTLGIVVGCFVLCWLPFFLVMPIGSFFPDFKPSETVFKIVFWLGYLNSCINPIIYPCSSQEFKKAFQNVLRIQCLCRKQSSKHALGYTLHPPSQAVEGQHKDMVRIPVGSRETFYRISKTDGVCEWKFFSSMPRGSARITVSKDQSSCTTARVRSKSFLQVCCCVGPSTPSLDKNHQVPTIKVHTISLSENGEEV

human α1A‐adrenoceptor [5] = target: T3, human α1A‐adrenoceptor; assay: ERK1/2‐phosphorylation (Surefire Alphascreen), CHO‐α1A cells; type: cell-based; details: for EC50: read-out: ERK1/2‐phosphorylation Log EC50 (converted)
[6] = system: parental CHO cell line without any transfected receptors; assay: Intracellular calcium mobilization, parent CHO cells without transfected receptors; type: cell-based, Chinese hamster; details: Cricetulus griseus; CHO cells without transfected receptors; response at maximum concentration used (c2), as % of ionomycin (10μM) response; mean ± s.e.m.; read-out: Intracellular calcium release % ionomycin
human α1B‐adrenoceptor [7] = target: T2, human α1B‐adrenoceptor; assay: ^3H‐prazosin whole‐cell radioligand binding, CHO‐α1B cells
human α1A‐adrenoceptor [8] = target: T3, human α1A‐adrenoceptor; assay: ^3H‐prazosin whole‐cell radioligand binding, CHO‐α1A cells
human α1B‐adrenoceptor [9] = target: T2, human α1B‐adrenoceptor; assay: ^3H‐cAMP accumulation in the presence of 10 μM forskolin, CHO‐α1B cells; type: cell-based; details: CHO‐α1B cells
human α1A‐adrenoceptor [10] = target: T3, human α1A‐adrenoceptor; assay: ^3H‐cAMP accumulation in the presence of 10 μM forskolin, CHO‐α1A cells; type: cell-based; details: CHO‐α1A cells
human α1B‐adrenoceptor [11] = target: T2, human α1B‐adrenoceptor; assay: ^3H‐cAMP accumulation, CHO‐α1B cells; type: cell-based; details: CHO‐α1B cells
human α1B‐adrenoceptor [12] = target: T2, human α1B‐adrenoceptor; assay: ERK1/2‐phosphorylation (Surefire Alphascreen), CHO‐α1B cells; type: cell-based; details: for EC50: read-out: ERK1/2‐phosphorylation Log EC50 (converted)
[13] = system: parental CHO cell line without any transfected receptors; assay: Forskolin‐stimulated cAMP accumulation, parent CHO cells without transfected receptors; type: cell-based, Chinese hamster; details: CHO cells without transfected receptors; response at 100μM only, EC50 not obtainable; % of forskolin-stimulated cAMP
human α1A‐adrenoceptor [14] = target: T3, human α1A‐adrenoceptor; assay: Intracellular free calcium mobilization, CHO‐α1A cells; type: cell-based; details: for EC50: read-out: Intracellular calcium release Log EC50 (converted)
[15] = target: T1, human α1D‐adrenoceptor (full length); assay: Intracellular free calcium mobilization, CHO‐α1D cells; type: cell-based
[16] = target: T1, human α1D‐adrenoceptor (full length); assay: ^3H‐prazosin whole‐cell radioligand binding, CHO‐α1D cells
[17] = target: T1, human α1D‐adrenoceptor (full length); assay: ^3H‐cAMP accumulation, CHO‐α1D cells; type: cell-based; details: cAMP accumulation without forskolin
[18] = target: T1, human α1D‐adrenoceptor (full length); assay: ^3H‐cAMP accumulation in the presence of 10 μM forskolin, CHO‐α1D cells; type: cell-based; details: CHO‐α1D cells
[19] = fold increase of the forskolin response

Cc1cccc(C(C)c2cnc[nH]2)c1C (centres unmarked) [Medetomidine]
ERK1/2‐phosphorylation % PDBu [1]: 22.6 ± 5.1%
EC50 [1]: 7.24 µM
Intracellular calcium release % ionomycin (human α1B‐adrenoceptor [2]): 43.0 ± 3.4%
Log efficacy ratio KD /EC50 (human α1B‐adrenoceptor [2]): 2.09
EC50 (human α1B‐adrenoceptor [2]): 0.117 µM
Emax at 100 µM [3]: 7.9 ± 3.8%
EC50 (human α1A‐adrenoceptor [4]; 5 h, read-out: cAMP accumulation Log EC50 (converted)): 0.646 µM
cAMP accumulation % forskolin (human α1A‐adrenoceptor [4]; % of 10 µM forskolin response): 46.3 ± 5.2%
ERK1/2‐phosphorylation % PDBu (human α1A‐adrenoceptor [5]): 85.8 ± 3.3%
EC50 (human α1A‐adrenoceptor [5]): 0.0316 µM
Emax [6]: 11.7 ± 2.4%
Kd (human α1B‐adrenoceptor [7]; Log KD α1B, ^3H‐prazosin whole cell binding): 14.5 µM
Kd (human α1B‐adrenoceptor [7]; Log KD, ^3H‐prazosin binding): 14.5 µM
Affinity selectivity ratio α1A vs α1B (human α1A‐adrenoceptor [8]): 6.2 fold
Kd (human α1A‐adrenoceptor [8]; Log KD α1A, ^3H‐prazosin whole cell binding): 2.34 µM
cAMP accumulation (in presence of forskolin) Fold increase (human α1B‐adrenoceptor [9]; [19]): 1.52 ± 0.04 fold
EC50 (human α1B‐adrenoceptor [9]; in presence of forskolin, read-out: cAMP accumulation (in presence of forskolin) Log EC50 (converted)): 0.0933 µM
EC50 (human α1A‐adrenoceptor [10]; 10 μM forskolin, read-out: cAMP accumulation (in presence of forskolin) Log EC50 (converted)): 0.126 µM
cAMP accumulation (in presence of forskolin) Fold increase (human α1A‐adrenoceptor [10]; [19]): 2.12 ± 0.09 fold
cAMP accumulation % forskolin (human α1B‐adrenoceptor [11]; % forskolin maximum response): 4.6 ± 0.9%
EC50 (human α1B‐adrenoceptor [11]; read-out: cAMP accumulation Log EC50 (converted)): 0.115 µM
ERK1/2‐phosphorylation % PDBu (human α1B‐adrenoceptor [12]): 55.2 ± 5.3%
EC50 (human α1B‐adrenoceptor [12]): 0.138 µM
cAMP accumulation (in presence of forskolin) % forskolin-stim cAMP at 100μM [13]: 88.4 ± 3.2%
Intracellular calcium release % ionomycin (human α1A‐adrenoceptor [14]): 57.2 ± 1.8%
Log efficacy ratio KD /EC50 (human α1A‐adrenoceptor [14]): 2.06
EC50 (human α1A‐adrenoceptor [14]): 0.0204 µM
Intracellular calcium release % Ionomycin at 100 µM [15]: 11.5 ± 2.3%
Affinity selectivity ratio α1A vs α1D [16]: 1.1 fold
Affinity selectivity ratio α1B vs α1D [16]: 6.8 fold
Kd ([16]; 3H‐prazosin binding Log KD): 2.14 µM
Kd ([16]; Log KD α1D, ^3H‐prazosin whole cell binding): 2.14 µM

COc1nc(C)nc(Cl)c1N=C1NCCN1 [Moxonidine]
EC50 ([1]; CHO‐α1D cells, log values given negative): 14.8 µM
ERK1/2‐phosphorylation % PDBu ([1]; CHO‐α1D cells, maximal response as % of PDBu): 16.4 ± 1.6%
EC50 (human α1B‐adrenoceptor [2]; CHO‐α1B cells, given as log EC50 (negative numbers)): 0.324 µM
Log efficacy ratio KD /EC50 (human α1B‐adrenoceptor [2]; CHO‐α1B cells, intrinsic efficacy ratio, KD from binding / EC50 calcium, log): 3.02
Intracellular calcium release % ionomycin (human α1B‐adrenoceptor [2]; CHO‐α1B cells, maximal response as % of 10 µM ionomycin response): 57.9 ± 2.1%
Emax at 100 µM [3]: 3.1 ± 1.9%
EC50 (human α1A‐adrenoceptor [5]; CHO‐α1A cells, 2–4 min, ^a bi‐phasic: initial stimulatory part, ^b also active in parent CHO cells): 0.141 µM
ERK1/2‐phosphorylation % PDBu (human α1A‐adrenoceptor [5]; CHO‐α1A cells, % of 10 µM PDBu, ^a bi‐phasic: initial stimulatory part): 78.0 ± 7.2%
Kd (human α1B‐adrenoceptor [7]; CHO‐α1B cells, given as log KD (negative), mean ± SEM): 339 µM
Kd (human α1B‐adrenoceptor [7]; Log KD, ^3H‐prazosin binding, CHO‐α1B cells, whole‐cell binding (from Table 1), given as log KD (negative numbers)): 339 µM
Kd (human α1A‐adrenoceptor [8]; CHO‐α1A cells, given as log KD (negative), mean ± SEM): 28.8 µM
Affinity selectivity ratio α1A vs α1B (human α1A‐adrenoceptor [8]; higher affinity for α1A than α1B): 11.7 fold
Affinity selectivity ratio α1A vs α1D (human α1A‐adrenoceptor [8]; higher affinity for α1A than α1D): 3.8 fold
cAMP Log EC50 [17]: No response
cAMP (in presence of forskolin) Fold increase [18, 19]: No response
cAMP (in presence of forskolin) Log EC50 ([18]; in presence of forskolin, log values given negative): No response
EC50 (human α1B‐adrenoceptor [12]; CHO‐α1B cells, for bi‐phasic responses the initial stimulatory part): 0.912 µM
ERK1/2‐phosphorylation % PDBu (human α1B‐adrenoceptor [12]; CHO‐α1B cells, maximal response as % PDBu response, for bi‐phasic responses the initial stimulatory part): 102.0 ± 6.5%
Log efficacy ratio KD /EC50 (human α1A‐adrenoceptor [14]; CHO‐α1A cells, binding KD and calcium EC50): 1.97
EC50 (human α1A‐adrenoceptor [14]; CHO‐α1A cells, given as log EC50 (negative)): 0.309 µM
Intracellular calcium release % ionomycin (human α1A‐adrenoceptor [14]; CHO‐α1A cells, maximal response as % of 10 µM ionomycin): 59.3 ± 4.5%
Log efficacy ratio KD /EC50 ([15]; CHO‐α1D cells, intrinsic efficacy ratio, binding KD / calcium EC50): 1.25
EC50 ([15]; CHO‐α1D cells, log values given negative, read-out: Intracellular calcium release Log EC50 (converted)): 6.17 µM
Intracellular calcium release % ionomycin ([15]; CHO‐α1D cells, maximal response as % of 10 µM ionomycin): 16.6 ± 2.9%
Kd ([16]; 3H‐prazosin binding Log KD, CHO‐α1D cells, whole‐cell binding (from Table 1), log values given negative): 110 µM
Kd ([16]; CHO‐α1D cells, given as log KD (negative), mean ± SEM, 'early plateau' = specific binding not fully inhibited): 110 µM
Affinity selectivity ratio α1B vs α1D ([16]; higher affinity for α1D than α1B): 3.1 fold
